Data set [1] can be described thus: Stability test of the crystals under accelerated and long-term storage conditions. In kind it is physicochemical. The conditions noted are these: 6 months after the start of the test, crystals obtained in Example 1. The procedure:
The crystals of the compound 1 obtained in Example 1 were subjected to a stability test under accelerated conditions (40° C./75% RH) and long-term storage conditions (25° C./60% RH).

Setting [2] is: accelerated conditions (40° C./75% RH).
Setting [3] is: long-term storage conditions (25° C./60% RH).

The structures appear in SMILES notation.

This is an account of results in patent US9315453B2, “4-(3-benzyloxyphenylthio)-2-chloro-1-(3-nitropropyl)benzene crystal” (KYORIN PHARMACEUTICAL CO., LTD., priority 2012, dated 2016).

The melting point is the temperature of the solid-liquid transition. Turning to `O=[N+]([O-])CCCc1ccc(Sc2cccc(OCc3ccccc3)c2)cc1Cl` [compound 1, 4-(3-benzyloxyphenylthio)-2-chloro-1-(3-nitropropyl)benzene], the melting point fell in the range of 46 to 47 °C. For the same compound, in data set [1] (setting [2]), the “change in the appearance of the crystals” value is “No change in the appearance” and the “formation of decomposition products” value is given as “no decomposition products were formed”. In data set [1] (setting [3]), the “change in the appearance of the crystals” value is on record as “No change in the appearance” and the “formation of decomposition products” value is given as “no decomposition products were formed”.
